Measurements published in patent publication US20250073226A1, “USE OF OPIOID FOR TREATMENT OF AUTISM SPECTRUM DISORDERS” (priority 2021, published 2025).
Where “and” joins values, the source holds several entries; their conditions need not be identical. Identical values can stand only once.

Experiments:
[1] = Pharmacokinetic: drug concentrations in plasma by LC-MS after subcutaneous administration; settings: ICR mice
mice = settings: Non-patent Document 28; cited from earlier work
[2] = system: model similar to this experiment; settings: 3 hours after administration; Horm Behav. 2017 November; 96:130-136; cited from earlier work
[3] = morphine hydrochloride 0.03 mg/kg s.c., Average value
[4] = morphine hydrochloride 0.03 mg/kg s.c., individual animals
[5] = morphine hydrochloride 0.1 mg/kg s.c., Average value
[6] = morphine hydrochloride 0.1 mg/kg s.c., individual animals
[7] = morphine hydrochloride 3 mg/kg s.c., Average value
[8] = morphine hydrochloride 3 mg/kg s.c., individual animals

In the case of `CN1CC[C@]23c4c5ccc(O)c4O[C@H]2[C@@H](O[C@@H]2O[C@H](C(=O)O)[C@@H](O)[C@H](O)[C@H]2O)C=C[C@H]3[C@H]1C5` [M6G], the “Plasma concentration M6G After 15 minutes” value [1, 3] is reported as 13.2 ng/mL, the “Plasma concentration M6G After 60 minutes” value [1, 3] is reported as 5.09 ng/mL and the “Plasma concentration M6G After 90 minutes” value [1, 3] is reported as 0.488 ng/mL. The “Plasma concentration M6G After 15 minutes” value [1, 4] was 10.4 ng/mL and 15.7 ng/mL and 13.6 ng/mL, the “Plasma concentration M6G After 60 minutes” value [1, 4] was 6.28 ng/mL and 5.05 ng/mL and 3.95 ng/mL and the “Plasma concentration M6G After 90 minutes” value [1, 4] was 0 ng/mL and 0.806 ng/mL and 0.657 ng/mL. For the same molecule, the “Plasma concentration M6G After 15 minutes” value [1, 5] was 44.6 ng/mL, the “Plasma concentration M6G After 90 minutes” value [1, 5] was 3.41 ng/mL and the “Plasma concentration M6G After 60 minutes” value ([1]; morphine hydrochloride 0.1 mg/kg s.c., Average value (N = 3 excluded as outlier)) was 7.65 ng/mL. For the same molecule, the “Plasma concentration M6G After 15 minutes” value [1, 6] was 47.7 ng/mL and 35.3 ng/mL and 50.7 ng/mL, the “Plasma concentration M6G After 60 minutes” value [1, 6] was 0 ng/mL and 15.3 ng/mL and the “Plasma concentration M6G After 90 minutes” value [1, 6] was 2.98 ng/mL and 4.4 ng/mL and 2.85 ng/mL. For the same molecule, the “Plasma concentration M6G After 15 minutes” value [1, 7] was 1196 ng/mL, the “Plasma concentration M6G After 60 minutes” value [1, 7] was 646 ng/mL and the “Plasma concentration M6G After 90 minutes” value [1, 7] was 298 ng/mL. The “Plasma concentration M6G After 15 minutes” value [1, 8] was 1250 ng/mL and 1340 ng/mL and 998 ng/mL, the “Plasma concentration M6G After 60 minutes” value [1, 8] was 829 ng/mL and 580 ng/mL and 528 ng/mL and the “Plasma concentration M6G After 90 minutes” value [1, 8] was 320 ng/mL and 240 ng/mL and 335 ng/mL.
In the case of `CN1CC[C@]23c4c5ccc(O)c4O[C@H]2[C@@H](O)C=C[C@H]3[C@H]1C5` [morphine], the “dose at which the analgesic effect was maximum” value (mice) is listed as 8 mg/kg.
In the case of `CC[C@H](C)[C@@H]1NC(=O)[C@H](Cc2ccc(O)cc2)NC(=O)[C@@H](N)CSSC[C@@H](C(=O)N2CCC[C@H]2C(=O)N[C@@H](CC(C)C)C(=O)NCC(N)=O)NC(=O)[C@H](CC(N)=O)NC(=O)[C@H](CCC(N)=O)NC1=O` [oxytocin], the “improvement effect of social impairment, persistence” value [2] is given as “the drug efficacy disappears”.
